Source: patent US20260262643A1, “HERBICIDAL BENZOXAZINES” (FMC CORPORATION, priority 2022, published 2026)

Columns and labels:
[1] = system: green foxtail; experiment: Test C preemergence; format: in vivo, Setaria viridis; details: 0 to 100 scale (0 no effect, 100 complete control)
How it was run: (§1)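 Visual injury score, 0–100 (100 = complete control), taken 10 days after treatment relative to untreated controls. Pre: directed spray onto soil over sown seeds. Post: foliar spray at one- to two-leaf stage, 2–10 cm. Solvent/surfactant formulation; loam–sand soil; greenhouse.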

[2] = system: ducksalad; experiment: Test D flooded paddy test; format: in vivo, Heteranthera limosa; details: 250 g ai/ha, applied to paddy water, visual rating after 13 to 14 days, scale 0 to 100 (0 no effect, 100 complete control)
How it was run: (§2)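 Visual ratings from 0, meaning no effect, to 100, meaning complete control, were assigned against untreated controls 13 to 14 days after compounds were added to the floodwater of pots kept 3 cm deep, with plants at the 2-leaf stage.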

[3] = system: wheat; experiment: Test C preemergence; format: in vivo, Triticum aestivum; details: 0 to 100 scale (0 no effect, 100 complete control)
How it was run: as §1

[4] = system: ryegrass, Italian; experiment: Test C postemergence; format: in vivo, Lolium multiflorum; details: 10 days
How it was run: as §1

[5] = system: soybean; experiment: Test C preemergence; format: in vivo, Glycine max; details: 0 to 100 scale (0 no effect, 100 complete control)
How it was run: as §1

[6] = system: kochia; experiment: Test C preemergence; format: in vivo, Bassia scoparia; details: 0 to 100 scale (0 no effect, 100 complete control)
How it was run: as §1

[7] = system: barnyardgrass; experiment: Test C postemergence; format: in vivo, Echinochloa crusgalli; details: 10 days
How it was run: as §1

[8] = system: green foxtail; experiment: Test C postemergence; format: in vivo, Setaria viridis; details: 10 days
How it was run: as §1

[9] = system: soybean; experiment: Test C postemergence; format: in vivo, Glycine max; details: 10 days
How it was run: as §1

[10] = system: ryegrass, Italian; experiment: Test C preemergence; format: in vivo, Lolium multiflorum; details: 0 to 100 scale (0 no effect, 100 complete control)
How it was run: as §1

[11] = system: corn; experiment: Test C preemergence; format: in vivo, Zea mays; details: 0 to 100 scale (0 no effect, 100 complete control)
How it was run: as §1

[12] = system: sedge, umbrella; experiment: Test D flooded paddy test; format: in vivo, Cyperus difformis; details: 250 g ai/ha, applied to paddy water, visual rating after 13 to 14 days, scale 0 to 100 (0 no effect, 100 complete control)
How it was run: as §2

[13] = system: oat, wild; experiment: Test C preemergence; format: in vivo, Avena fatua; details: 0 to 100 scale (0 no effect, 100 complete control)
How it was run: as §1

[14] = system: blackgrass; experiment: Test C postemergence; format: in vivo, Alopecurus myosuroides; details: 10 days
How it was run: as §1

[15] = system: galium; experiment: Test C postemergence; format: in vivo, Galium aparine; details: 10 days
How it was run: as §1

[16] = system: rice; experiment: Test D flooded paddy test; format: in vivo, Oryza sativa; details: 250 g ai/ha, applied to paddy water, visual rating after 13 to 14 days, scale 0 to 100 (0 no effect, 100 complete control)
How it was run: as §2

[17] = system: kochia; experiment: Test C postemergence; format: in vivo, Bassia scoparia; details: 10 days
How it was run: as §1

[18] = system: pigweed, palmer; experiment: Test C preemergence; format: in vivo, Amaranthus palmeri; details: 0 to 100 scale (0 no effect, 100 complete control)
How it was run: as §1

[19] = system: barnyardgrass; experiment: Test C preemergence; format: in vivo, Echinochloa crusgalli; details: 0 to 100 scale (0 no effect, 100 complete control)
How it was run: as §1

[20] = system: barnyardgrass; experiment: Test D flooded paddy test; format: in vivo, Echinochloa crus-galli; details: 250 g ai/ha, applied to paddy water, visual rating after 13 to 14 days, scale 0 to 100 (0 no effect, 100 complete control)
How it was run: as §2

[21] = system: ragweed; experiment: Test C preemergence; format: in vivo, Ambrosia artemisiifolia; details: 0 to 100 scale (0 no effect, 100 complete control)
How it was run: as §1

[22] = system: wheat; experiment: Test C postemergence; format: in vivo, Triticum aestivum; details: 10 days
How it was run: as §1

[23] = system: pigweed, palmer; experiment: Test C postemergence; format: in vivo, Amaranthus palmeri; details: 10 days
How it was run: as §1

[24] = system: oat, wild; experiment: Test C postemergence; format: in vivo, Avena fatua; details: 10 days
How it was run: as §1

[25] = system: corn; experiment: Test C postemergence; format: in vivo, Zea mays; details: 10 days
How it was run: as §1

[26] = system: ragweed; experiment: Test C postemergence; format: in vivo, Ambrosia artemisiifolia; details: 10 days
How it was run: as §1

[27] = system: blackgrass; experiment: Test C preemergence; format: in vivo, Alopecurus myosuroides; details: 0 to 100 scale (0 no effect, 100 complete control)
How it was run: as §1

[28] = system: horseweed; experiment: Test C postemergence; format: in vivo, Erigeron canadensis; details: 10 days
How it was run: as §1

[29] = Preemergence, 500 g ai/ha, visual rating after 10 days
[30] = Test C, preemergence, 125 g ai/ha
[31] = 125 g ai/ha, postemergence, 0 to 100 scale, 0 no effect, 100 complete control
[32] = Postemergence, 500 g ai/ha, visual 0 to 100 scale (0 no effect, 100 complete control)

CC(C)n1cnc(-c2cccc(C(=O)N3C[C@H](C)Oc4c(Cl)cccc43)c2)n1 [Compound 172]
Plant response rating, Foxtail, Green [1, 29]: 0 | Foxtail, Green plant response rating [1, 30]: 0 | Plant response rating, Ducksalad (Flood) [2]: 0 | Plant response rating, Wheat [3, 29]: 0 | Wheat plant response rating [3, 30]: 0 | Plant response rating, Ryegrass, Italian [4, 31]: 0 | Plant response rating, Ryegrass, Italian [4, 32]: 0 | Plant response rating, Soybean [5, 29]: 0 | Soybean plant response rating [5, 30]: 0 | Plant response rating, Kochia [6, 29]: 0 | Kochia plant response rating [6, 30]: 0 | Plant response rating, Barnyardgrass [7, 31]: 0 | Plant response rating, Barnyardgrass [7, 32]: 0 | Plant response rating, Foxtail, Green [8, 31]: 0 | Plant response rating, Foxtail, Green [8, 32]: 0 | Plant response rating, Soybean [9, 31]: 0 | Plant response rating, Soybean [9, 32]: 0 | Plant response rating, Ryegrass, Italian [10, 29]: 20 | Ryegrass, Italian plant response rating [10, 30]: 0 | Plant response rating, Corn [11, 29]: 0 | Corn plant response rating [11, 30]: 0 | Plant response rating, Sedge, Umbrella (Flood) [12]: 0 | Plant response rating, Oat, Wild [13, 29]: 0 | Oat, Wild plant response rating [13, 30]: 0 | Plant response rating, Blackgrass [14, 31]: 0 | Plant response rating, Blackgrass [14, 32]: 0 | Plant response rating, Galium [15, 31]: 0 | Plant response rating, Galium [15, 32]: 0 | Plant response rating, Rice (Flood) [16]: 0 | Plant response rating, Kochia [17, 31]: 0 | Plant response rating, Kochia [17, 32]: 30 | Plant response rating, Pigweed, Palmer [18, 29]: 0 | Pigweed, Palmer plant response rating [18, 30]: 0 | Plant response rating, Barnyardgrass [19, 29]: 0 | Barnyardgrass plant response rating [19, 30]: 0 | Plant response rating, Barnyardgrass (Flood) [20]: 0 | Plant response rating, Ragweed [21, 29]: 0 | Ragweed plant response rating [21, 30]: 0 | Plant response rating, Wheat [22, 31]: 0 | Plant response rating, Wheat [22, 32]: 0 | Plant response rating, Pigweed, Palmer [23, 31]: 0 | Plant response rating, Pigweed, Palmer [23, 32]: 0 | Plant response rating, Oat, Wild [24, 31]: 0 | Plant response rating, Oat, Wild [24, 32]: 0 | Plant response rating, Corn [25, 31]: 0 | Plant response rating, Corn [25, 32]: 0 | Plant response rating, Ragweed [26, 31]: 0 | Plant response rating, Ragweed [26, 32]: 0 | Plant response rating, Blackgrass [27, 29]: 0 | Blackgrass plant response rating [27, 30]: 0 | Plant response rating, Horseweed [28, 31]: 0 | Plant response rating, Horseweed [28, 32]: 0
